In patent publication US20170307610A1, “COMPOUNDS THAT BIND DYSTROGLYCAN AND USES THEREOF” (OREGON HEALTH & SCIENCE UNIVERSITY, priority 2014, published 2017):

What was measured:
E3D1 MECs = experiment: Steady-state laminin internalization, flow cytometry; type: cell-based, mouse; details: steady-state, continuous Rhod-Ln
Experimental: Endocytic internalization of laminin was confirmed by multiple methods. Laminin was labeled with the pH-sensitive fluorescent label CypHer-5 (CyPher-Ln) to exclusively image internalized laminin in attached, living cells. The fluorophore CypHer-5 is non fluorescent at pH 7.4 and maximally fluorescent at pH 5.5, permitting fluorescence detection of laminin within intracellular acidic vesicles (pH 4.8-6.0). Following overnight incubation of MECs with CypHer-Ln, live cell imaging detected bright fluorescent vesicles moving rapidly within the cytoplasm (FIG. 3A). Intracellular laminin within the cytoplasm was also independently observed via removal of surface bound laminin followed by confocal imaging. MECs were exposed to 10 μg/ml Rhod-Ln for 18 hrs, trypsinized, washed with PBS/EDTA to remove surface-bound laminin, allowed to re-attach, and stained with the membrane marker FITC-concanavalin A (conA). […] This method of cell treatment permitted a quantitative, flow cytometry-based assay of laminin internalization. In this assay, cells incubated with Rhod-Ln were trypsinized, washed (as in FIG. 3B), and the remaining internal Rhod-Ln fluorescence quantified by flow cytometry. Using this assay, laminin internalization was confirmed in diverse cell types including in primary mammary epithelial cultures, mammary epithelial cell lines (E3D1, MEpG), […] fibroblasts (NIH 3T3 cells), primary astrocytes, and human cancer cell lines (breast and glioma).
To explore the dynamics of laminin internalization, steady-state time course experiments (measuring internalization in the continuous presence of labeled laminin) and pulsed time course experiments were performed. In pulsed time course experiments, the cells were exposed to exogenous Rhod-Ln at 4° C. to prevent internalization, excess unbound Rhod-Ln was washed away, and then cells were returned to 37° C. to allow synchronized internalization and trafficking to proceed. […] Following pulsed and synchronized laminin exposure, Rhod-Ln was again observed to internalize within 1 hour, but reached a maximum at 8 hours, after which the levels of internal laminin declined (FIG. 4A). After 24 hours, internal Rhod-Ln levels declined to ˜37% of the maxima, indicating degradation (MFI: 315±3.5 to 119±11.5). To determine if laminin was degraded using classical degradation pathways, pulsed time course experiments in the presence of leupeptin (lysosome inhibitor) or […] (proteasome inhibitor) were performed.
Laminin internalization could be mediated by either receptor-dependent or receptor independent mechanisms (e.g. pinocytosis). Steady-state laminin internalization was measured using flow cytometry in the presence of potential inhibitors and compared to internalization of 500S FITC-dextran, a molecule of similar molecular size to laminin known to be endocytosed by receptor-independent mechanisms. The specific inhibitor of dynamin, dynasore (Macia E et al, Dev Cell, 839-850 (2006); incorporated by reference herein), inhibited internalization of laminin by >75% (FIG. 6A). Under hypertonic sucrose, a condition known to inhibit receptor-mediated endocytosis (Heuser J E and Anderson R G, J Cell Biol 108, 389-400 (1989); incorporated by reference herein) laminin internalization was reduced by 65% (FIG. 6A). Addition of heparin, a molecule known to bind the laminin LG4-5 domain (Harrison D et al, J Biol Chem 282, 11573-11581 (2007); incorporated by reference herein), decreased laminin internalization by 69% relative to controls (FIG. 6A). […] Specifically, under steady state, laminin internalization was nearly linear throughout the 24 hour time course, whereas dextran internalization plateaued after 16 hrs.
Flow Cytometry—Cells were plated in 12 well plates at 200,000 cells/well. The following day, media was changed to serum-free media with or without 10 μg/ml rhodamine laminin or 40 μg/ml FITC-dextran (500S-Sigma-Aldrich Corp., St. Louis, Mo., USA). […]

LN18 human glioma cells = experiment: Laminin internalization in vector or LARGE expressing cells, flow cytometry; type: cell-based
Excerpt: (§1) Loss of DG's laminin binding function is a cause of some congenital muscular dystrophies (CMDs) and is a frequent defect in cancers including those of the breast, prostate, colon, and brain (Akhavan A et al, 2012 supra; Beltran-Valero de Bernabe et al, 2009 infra). This loss of function arises from altered glycosylation of DG and can be restored in many carcinoma and glioblastoma cells by expression of the enzyme LARGE, a glycosyltransferase that confers laminin-binding properties to DG (Akhavan et al., 2012; Beltran-Valero de Bernabe D et al, J Biol Chem 284, 11279-11284 (2009); incorporated by reference herein. Based on these facts in light of the disclosure herein, it was hypothesized that laminin internalization would be severely disrupted in cancer cells lacking DG activity and enhanced by the restoration of such activity. This hypothesis was tested in MDA-MB-231 human breast cancer cells and LN18 human glioma cells, both of which lack DG glycosylation and function. […] Expression of LARGE restored normal glycosylation of DG as determined by western blot analysis with IIH6 antibody (FIG. 10A, LARGE) and functional interaction of DG in the laminin assembly assay (FIG. 10B, LARGE). These cells were subsequently assayed for laminin internalization by flow cytometry.
(§2) Flow Cytometry—Cells were plated in 12 well plates at 200,000 cells/well. The following day, media was changed to serum-free media with or without 10 μg/ml rhodamine laminin or 40 μg/ml FITC-dextran (500S-Sigma-Aldrich Corp., St. Louis, Mo., USA). Unless otherwise indicated, cells were incubated 18-24 hrs, washed once with PBS, and cells trypsinized. Cells were washed in 5 ml cold PBS/1 mM EDTA, pelleted, and resuspended in 1 ml PBS/1 mM EDTA. Using a BD FACScan flow cytometer (BD Biosciences, San Jose, Calif., USA), 10,000 cells/well were counted, background fluorescence from the cell counts with no added laminin subtracted and the mean fluorescence intensity values reported. Graphed data are compiled from duplicate wells from each experiment with a minimum of three separate experiments, unless indicated otherwise.

[1] = test system: MDA-MB-231 human breast cancer cells; experiment: as above; type: cell-based
Excerpt: as §1, §2

Rhod-Ln: laminin-111 labeled with NHS-rhodamine; dystroglycan binding reagent
time at which internalized laminin was measurable (E3D1 MECs): ≤ 1 h | time to plateau of laminin internalization (E3D1 MECs): > 30 h | increase in MFI of internalized laminin, LARGE vs vector (LN18 human glioma cells; LN18): 10 fold | MFI of internalized laminin, LARGE expressing cells (LN18 human glioma cells; LN18 LARGE, n=3): 1.49±0.049 | MFI of internalized laminin, vector cells (LN18 human glioma cells; LN18 empty vector, n=3): 0.145±0.155 | increase in MFI of internalized laminin, LARGE vs vector ([1]; MDA-MB-231): 68 fold | MFI of internalized laminin, LARGE expressing cells ([1]; MDA-MB-231 LARGE, Rhod-Ln 18 hours, n=3): 6.82 +/−0.241 | MFI of internalized laminin, vector cells ([1]; MDA-MB-231 empty vector, Rhod-Ln 18 hours, n=3): 0.1+/−0.014
